Data on 28 compounds can be found in ChEMBL document CHEMBL5329213, “Discovery of a novel GPR35 agonist with high and equipotent species potency for oral treatment of IBD” (Bioorg Med Chem, 2023).

The target in data set [1] is T1, G-protein coupled receptor 35 (Mus musculus, UniProt Q9ES90). As to the kind of experiment: Agonist activity at mouse GPR35 expressed in HEK293 cells co-expressing Galpha16 assessed as increase in calcium mobilization by Fluo-4 AM dye based fluorescence assay. Type of data set: functional, cell-based.
In data set [2] the test system is Mus musculus. As to the kind of experiment: Anti-colitis activity against DSS-induced ulcerative colitis C57BL/6 mouse model assessed as reduction in colitis symptoms by measuring decrease in stool thinning at 200 mg/kg, po qd for 7 days administered via gavage. Type of data set: functional, organism-based. As to conditions: time 7.0 day.
In data set [3] the test system is Mus musculus. Kind of data set: Anti-colitis activity against DSS-induced ulcerative colitis C57BL/6 mouse model assessed as reduction in colitis symptoms by measuring decrease in body weight loss at 200 mg/kg, po qd for 7 days administered via gavage. Type of data set: functional, organism-based. As to conditions: time 7.0 day.
Data set [4] concerns Mus musculus. As to the kind of experiment: Anti-colitis activity against DSS-induced ulcerative colitis C57BL/6 mouse model assessed as reduction in colitis symptoms by measuring decrease in rectal bleeding at 200 mg/kg, po qd for 7 days administered via gavage. As to conditions: time 7.0 day. Type of data set: functional, organism-based.
In data set [5] the target is T2, G-protein coupled receptor 35 (Homo sapiens, UniProt Q9HC97). Kind of data set: Agonist activity at human GPR35 expressed in HEK293 cells co-expressing Galpha16 assessed as increase in calcium mobilization by Fluo-4 AM dye based fluorescence assay. Type of data set: functional, cell-based.
In data set [6] the target is G-protein coupled receptor 35 (Mus musculus) (UniProt Q9ES90). Kind of data set: Agonist activity at mouse GPR35 expressed in HEK293 cells co-expressing Galpha16 assessed as increase in calcium mobilization by Fluo-4 AM dye based fluorescence assay relative to-iodoxamide. Type of data set: functional, cell-based. As to conditions: filed as agonist. Background: Calcium flux is commonly read through the fluorescence of an indicator in the cells.

Data set [7] can be described thus: Agonist activity at rat GPR35 by beta-arrestin recruitment assay. For orientation: Recruitment of arrestin is a read-out of receptor activation apart from second messengers.
A short description of data set [8]: Stability of the compound in mouse plasma. Type of data set: ADME, cell-free.
The nature of data set [9]: Stability of the compound in plasma of DSS-induced ulcerative colitis C57BL/6 mouse model at 20 mg/kg, po qd for 7 days administered via gavage. Type of data set: ADME, organism-based. As to conditions: in vivo, 168 h, time 7 day.
A short description of data set [10]: Agonist activity at rat GPR35 expressed in HEK293 cells co-expressing Galpha16 assessed as increase in calcium mobilization by Fluo-4 AM dye based fluorescence assay.
Data set [11] concerns the target T2, G-protein coupled receptor 35. As to the kind of experiment: Agonist activity at human GPR35 by beta-arrestin recruitment assay. Type of data set: functional.
Data set [12] has as its target T1, G-protein coupled receptor 35. Kind of data set: Agonist activity at mouse GPR35 by beta-arrestin recruitment assay. Type of data set: functional.

Activity calls are given as the source filed them. The calls are words filed in the database; no cut-off is given here. Where only a bound is given, the exact number is not on record here.

Chain of G-protein coupled receptor 35 (Mus musculus) (Q9ES90 whole entry): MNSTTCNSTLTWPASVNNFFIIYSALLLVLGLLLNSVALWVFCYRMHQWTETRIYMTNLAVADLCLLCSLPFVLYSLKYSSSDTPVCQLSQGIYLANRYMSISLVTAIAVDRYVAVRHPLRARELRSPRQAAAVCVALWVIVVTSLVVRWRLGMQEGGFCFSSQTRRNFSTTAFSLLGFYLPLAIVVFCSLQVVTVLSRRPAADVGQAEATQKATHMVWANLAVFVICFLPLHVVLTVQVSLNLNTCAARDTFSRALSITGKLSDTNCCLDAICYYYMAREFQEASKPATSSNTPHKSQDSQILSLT
T1 sequence (Q9ES90 whole entry): as above
T2 sequence (Q9HC97 whole entry): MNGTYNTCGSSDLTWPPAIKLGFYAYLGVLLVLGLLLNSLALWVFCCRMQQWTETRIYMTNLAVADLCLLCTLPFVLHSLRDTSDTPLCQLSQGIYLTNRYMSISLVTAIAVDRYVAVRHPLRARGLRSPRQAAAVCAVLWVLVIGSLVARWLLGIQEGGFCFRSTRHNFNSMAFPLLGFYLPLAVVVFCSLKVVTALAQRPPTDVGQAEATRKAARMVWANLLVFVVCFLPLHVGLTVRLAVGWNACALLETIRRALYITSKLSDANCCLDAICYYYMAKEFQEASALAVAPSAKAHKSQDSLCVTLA

As to `Cc1cc(NC(=O)C(=O)O)c(Cl)c(NC(=O)C(=O)O)c1`, the EC50 in [1] was found to be 69.1 nM.

As for `CCOC(=O)C(=O)Nc1cccc(NC(=O)C(=O)OCC)c1Cl`, in data set [1], the EC50 was 3260 nM.

As for `COc1c(NC(=O)C(=O)O)cc(C#N)cc1NC(=O)C(=O)O`, in data set [1], the EC50 is 3110 nM.

Consider `CCOC(=O)C(=O)Nc1cc(Br)cc(NC(=O)C(=O)OCC)c1Cl`, for which the EC50 in data set [1] came out at 42.5 nM.

Consider `O=C(Nc1cc(C(F)(F)F)cc(NC(=O)C(=O)OC2CCCCC2)c1Cl)C(=O)OC1CCCCC1`, for which the concentration giving a half-maximal response (EC50) in [1] amounted to 61 nM.

In the case of `O=C(O)C(=O)Nc1cc(NC(=O)C(=O)O)cc(C(F)(F)F)c1`, the EC50 in data set [1] stood at 12.4 nM.

For the compound `Nc1ccc(O)c(C(=O)O)c1`, the outcome in the data set with Mus musculus [2], with Mus musculus [3] and with Mus musculus [4] was Active.

With `O=C(O)C(=O)Nc1cccc(NC(=O)C(=O)O)c1`, the EC50 in data set [5] stood at 4250 nM; in data set [1], 8060 nM. Moreover, in [6], the Emax worked out at 105%.

Turning to `O=C(O)C(=O)Nc1cc(C(=O)O)cc(NC(=O)C(=O)O)c1Cl`, the EC50 turned out to be 125 nM in data set [5] and 5300 nM in data set [1]. For the same compound, in data set [6], the Emax worked out at 75%.

For the compound `O=C1N/C(=N/c2ccccc2F)S/C1=C\c1ccc(C(=O)O)cc1`, in data set [7], the EC50 worked out at 8000 nM.

Consider `CCOC(=O)C(=O)Nc1cc(C(F)(F)F)cc(NC(=O)C(=O)OCC)c1Cl`, for which the EC50 in data set [1] is 63.7 nM. Moreover, the Stability entry in [8] and in data set [9] was “Unstable” throughout.

In the case of `COc1ccc(C(=O)Nc2cc(Br)cc3c(=O)cc(C(=O)O)oc23)cc1`, in data set [7], the EC50 amounted to 1400 nM.

On to `O=C(O)C(=O)Nc1cc(C(F)(F)F)cc(NC(=O)C(=O)O)c1Cl`, for which the EC50 in [1] was 55.8 nM.

For the compound `O=C(O)C(=O)Nc1cc(Br)cc(NC(=O)C(=O)O)c1Cl`, the figures for the EC50 in data set [5], in [1] and in data set [10] were 25.8 nM, 28.1 nM and 34.6 nM, respectively. Further, in [6], the maximal effect (Emax) is 106%.

Take `N#Cc1cc(NC(=O)C(=O)O)c(Cl)c(NC(=O)C(=O)O)c1` [LODOXAMIDE]: the EC50 in [5] is 41.1 nM; in [1], 422 nM; in [10], 21.5 nM; in data set [11], 4 nM; in [7], 13 nM.

For `O=C(O)c1cc2ccccc2c(Cc2c(O)c(C(=O)O)cc3ccccc23)c1O` [PAMOIC ACID], in data set [7], the EC50 was over 100000 nM.

For the compound `Cc1c(NC(=O)C(=O)O)cc(C(=O)O)cc1NC(=O)C(=O)O`, the EC50 in [1] was over 10000 nM.

For the compound `O=C(O)c1cc(=O)c2c(OCC(O)COc3cccc4oc(C(=O)O)cc(=O)c34)cccc2o1` [CROMOLYN], the EC50 in data set [11] was found to be 8000 nM; in data set [12], 58000 nM; in data set [7] it was 4000 nM.

Take `CN(C)c1c(NC(=O)C(=O)O)cc(C#N)cc1NC(=O)C(=O)O`: the EC50 in data set [1] turned out to be 9160 nM.

As for `O=C(Nc1cc(C(F)(F)F)cc(NC(=O)C(=O)OC2CC2)c1Cl)C(=O)OC1CC1`, the EC50 in data set [5] is 75 nM; in [1] it was 119 nM. Besides, the maximal response (Emax) in data set [6] was 86%.

Turning to `O=C(O)C(=O)Nc1cccc(NC(=O)C(=O)O)c1Cl`, the EC50 in [1] was 3640 nM.

For the compound `CCOC(=O)C(=O)Nc1cc(C(=O)OCC(C)C)cc(NC(=O)C(=O)OCC)c1Cl`, the EC50 in data set [1] stood at 20.9 nM.

For the compound `CCCOc1ccccc1-c1nc2[nH]nnc2c(=O)[nH]1` [ZAPRINAST], the EC50 in data set [12] came out at 1000 nM; in data set [7], 100 nM.

In the case of `CCCCc1cc2c(=O)cc(C(=O)O)[nH]c2c2c(=O)cc(C(=O)O)[nH]c12` [BUFROLIN], in [7], the concentration giving a half-maximal response (EC50) amounted to 10 nM.

For the compound `O=C(Nc1cc(C(F)(F)F)cc(NC(=O)C(=O)OC2CCCC2)c1Cl)C(=O)OC1CCCC1`, the EC50 worked out at 1040 nM in data set [5] and 126 nM in data set [1]. Besides, in [6], the Emax turned out to be 91%.

In the case of `COC(=O)C(=O)Nc1cc(C(F)(F)F)cc(NC(=O)C(=O)OC)c1Cl`, the EC50 in data set [1] stood at 27.2 nM.

With `N#Cc1cc(NC(=O)C(=O)O)cc(NC(=O)C(=O)O)c1`, in data set [1], the EC50 came to 376 nM.

`CCOC(=O)C(=O)Nc1cc(C#N)cc(NC(=O)C(=O)OCC)c1Cl` [LODOXAMIDE ETHYL]: the EC50 stood at 29.2 nM in [5] and 263 nM in data set [1]. The Emax in [6] amounted to 139%.

Usually EC50 stands for the concentration that produces a half-maximal response. By Emax is commonly meant the maximal effect, on the per cent scale that the assay sets.
